{"source": "paper PMC3479139", "about": "“Diverse Small Molecule Inhibitors of Human Apurinic/Apyrimidinic Endonuclease APE1 Identified from a Screen of a Large Public Collection” (PLoS ONE, 2012)", "key": {"[1]": {"tested_on": "HeLa cells", "assay": "AP site measurement in genomic DNA", "type": "cell-based, human", "conditions": "for AP sites upon treatment with the inhibitor alone / AP site levels, combination treatment versus MMS-alone: 24 h; for AP sites upon treatment with the inhibitor alone: inhibitor alone vs vehicle; for AP site levels, combination treatment versus MMS-alone: initial test (Figure 8)", "description": "HeLa cells at 80% confluency (6×10^5 cells) were subjected to the following treatments in a 6-well plate for 24 hours at 37°C: 1) DMSO alone, 2) 275 µM MMS, 3) APE1 inhibitors dissolved in DMSO (5–20 µM final compound concentration), and 4) the inhibitors as in treatment 3 in combination with 275 µM MMS. Cells were then harvested and processed using a Qiagen Genomic DNA isolation kit (Germantown, MD). After DNA quantitation, AP sites were measured using the DNA Damage Quantification kit from Dojindo Molecular Technologies (Rockville, MD).\nAs stated above, the application of the genotoxic agent MMS results in an increase in the level of AP sites within the genome. An effective APE1-targeted inhibitor applied under the conditions of increased genotoxic stress is expected to interfere with the repair of AP sites, while ideally having no effect on the AP site levels when applied as a single agent. Thus, the net effect of treating cells with a combination of MMS and inhibitor would be an increase in the number of AP site lesions. To determine the effect on AP site accumulation caused by treatment with MMS in combination with an APE1 inhibitor, as compared to treatment with MMS or inhibitor alone, we measured AP site levels in the chromosomal DNA from HeLa cells using an aldehyde-reactive probe-based colorimetric assay. The concentrations of MMS and inhibitor (275 µM for MMS and between […] for the inhibitor, respectively) were selected to fall below the onset of cytotoxicity for each agent based on the analysis of the MMS potentiation data shown in Figure 5."}, "[2]": {"target": "double-stranded 17-mer DNA fragment", "assay": "ThO (Thiazole Orange) DNA displacement assay;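 further: miniaturized displacement of the intercalating dye from unlabeled duplex DNA, used to flag nonspecific DNA binders, chiefly intercalators, groove binders may be missed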", "type": "binding", "conditions": "read-out: ThO-DNA binding IC50", "from_the_text": "The double-stranded 17-mer DNA fragment used in the ThO DNA binding assay was of the same sequence as the fluorogenic HTS substrate but carried no dye labels.\n(§1) In order to screen out nonselective compounds, such as non-specific DNA binders and inhibitors of related enzymes, we used a miniaturized ThO DNA displacement assay and a counterscreen against the bacterial endonuclease E. coli Endo IV, respectively, following the previously published protocols [21].\nTo detect screening hits that inhibit APE1 activity through non-specific DNA interactions, we employed a previously established miniaturized ThO dye displacement assay [21]. […] We note that the ThO assay reports primarily on DNA binders acting through intercalation, while potentially missing other types of DNA binders, such as those acting through the minor groove."}, "[3]": {"target": "T1, E. coli Endo IV (Escherichia coli, UniProt P0A6C1)", "T1 construct": "made in house", "assay": "E. coli Endo IV profiling counterscreen;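 further: selectivity counterscreen of candidate APE1 inhibitors against the bacterial endonuclease Endo IV, run in the same assay format as the primary APE1 high-throughput screen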", "type": "biochemical", "from_the_text": "as §1\nTo probe the selectivity of the candidate APE1 inhibitors, we tested them against E. coli EndoIV [36], employing the same assay as used in the HTS."}, "[4]": {"tested_on": "histone acetyltransferase (HAT) p300", "parameters": "method as in PMID 20534345, PMID 21764752", "conditions": "cited from earlier work"}, "[5]": {"target": "T2, APE1 (Homo sapiens, UniProt P27695)", "T2 construct": "made in house", "T2 sequence (P27695 whole entry)": "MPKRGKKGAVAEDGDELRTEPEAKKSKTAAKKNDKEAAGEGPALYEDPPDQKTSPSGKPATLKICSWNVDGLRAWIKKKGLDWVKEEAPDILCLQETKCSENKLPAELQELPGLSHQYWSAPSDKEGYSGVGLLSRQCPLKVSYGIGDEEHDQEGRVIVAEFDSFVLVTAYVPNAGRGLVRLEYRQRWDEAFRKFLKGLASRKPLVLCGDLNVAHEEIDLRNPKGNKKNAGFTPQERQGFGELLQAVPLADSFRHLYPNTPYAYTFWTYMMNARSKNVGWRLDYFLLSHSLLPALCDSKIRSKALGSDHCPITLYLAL", "assay": "Fluorogenic kinetic qHTS APE1 incision assay (primary screen and retest of cherrypicked samples);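 further: purified APE1 cleaving a fluorophore/dark-quencher labelled 17-mer duplex DNA bearing a tetrahydrofuran AP site, fluorescence rise followed kinetically over the first 2 min, inhibition normalized to controls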", "type": "biochemical", "method": "All screening operations were performed on a fully integrated robotic system (Kalypsys, San Diego, CA) [28] with library plates screened proceeding from the lowest to the highest concentration to minimize compound carryover [26]. Vehicle-only plates, with DMSO being pin-transferred to the entire column 5–48 compound area, were included regularly throughout the screen in order to record any systematic shifts in assay signal. During the screen, reagent bottles were kept at 4°C and all liquid lines were covered with aluminum foil to minimize degradation.\nScreening data were corrected and normalized, and concentration–effect relationships was derived using in-house developed algorithms [25].\nTo screen for inhibitors of APE1 incision activity, we employed a purified-enzyme biochemical assay with a model substrate featuring a red-shifted fluorescent reporter in combination with a dark non-emitting quencher. These moieties were incorporated as end labels onto a 17-mer double-stranded DNA fragment containing a centrally-located tetrahydrofuran AP site sugar mimetic, which serves as the APE1 cleavage site. Upon APE1-catalyzed strand scission immediately 5′ to the AP site analog, the shortened oligodeoxynucleotide carrying the fluorescent reporter spontaneously dissociates from the rest of the substrate, leading to an increase in fluorescence due to its spatial separation from the dark quencher (Figure 1A).\nUsing a high-speed whole-plate fluorescence imager, the assay data for the entire screen was conducted in kinetic mode, with the APE1 incision reaction being monitored over the initial linear time frame of 2 min (Figure 1B). Thus, any inhibition associated with each sample was computed from the alteration in fluorescence intensity over the time-course measurement period, after normalization against the appropriate controls (Figure 1B, inset)."}, "[6]": {"target": "T2, APE1", "assay": "Fluorescence polarization (FP) displacement assay of APE1 binding to AP-DNA probe;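 further: TAMRA 5′-labeled duplex DNA with THF abasic site (5 nM) and APE1 (20 nM), Mg2+-free buffer, 15 min at room temperature, inhibition seen as lowered polarization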", "conditions": "read-out: FP IC50"}, "[7]": {"tested_on": "HeLa cells", "assay": "MMS potentiation assay (CellTiter Glo viability)", "type": "cell-based, human", "parameters": "key: N.A., no activity observed; P, positive; I, inconclusive; N.T., not tested", "conditions": "for MMS Assay: potentiation of the genotoxic effect of methylmethane sulfonate", "description": "HeLa cells were plated at 6000 cells/well in DMEM culture medium containing 10% FBS into white solid bottom 384-well cell culture plates. The plates were incubated at 37°C overnight for cell attachment, followed by media replacement. The fresh medium contained serial dilutions of compounds of interest in the presence (0.4 mM final) or absence of MMS. The plates were incubated for 24 h at 37°C. Cell viability was determined by luminescence detection after an addition of 15 µL of CellTiter Glo reagent (Promega, Madison, WI). Percent viability was calculated for each concentration of compound tested in duplicate by relating the corresponding luminescence to that of a negative DMSO vehicle control. MMS potentiation trends were defined as follows: negative (-), if cell viability in the compound-plus-MMS treatment was the same as that of the DMSO-plus-MMS control (overlapping dose-response curves); inconclusive (I), if the shift in the cell viability dose-response upon MMS inclusion relative to compound-alone was less than 30%; and positive (P), if the difference between the compound-plus-MMS and compound-alone curves was at least 30%, and maintained within at least a two-fold compound concentration span.\nTo examine the biological prospects of the top compounds, we tested their ability to inhibit APE1 DNA repair activity by assessing enhancement of MMS toxicity in mammalian cells. MMS creates methylated-base damage to genomic DNA, which, when excised by an alkylpurine DNA glycosylase, results in a high number of cytotoxic AP sites. We compared the viability of HeLa cells exposed to a dilution series of inhibitor alone to a combination of a fixed MMS concentration with the same dilution series of inhibitor by using a standard CellTiter Glo luminescence assay. This technique measures the number of viable cells in culture based on quantitation of the ATP present, which signals the presence of metabolically active cells. The assay was further optimized for 384-well plates, allowing a high-throughput testing of multiple hits at multiple concentrations, a scope of investigation previously impossible due to the very low throughput of the traditionally applied colony formation assay.\nFrom the 223 compounds found positive in the gel-based APE1 assays, exclusion of the most promiscuous hits, that is, those that were both DNA binders and EndoIV-inhibitory, yielded a set of 170 compounds (Figure 3). This shortened group of hits was tested in the cell-based potentiation assay for their ability to dose-dependently enhance sensitivity of HeLa cells to the alkylating agent MMS."}, "[8]": {"target": "T2, APE1", "assay": "Gel-based APE1 incision assay with fluorescence (TAMRA) detection", "type": "biochemical"}, "[9]": {"target": "T2, APE1", "assay": "Gel-based radiotracer (32P) APE1 incision assay;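 further: APE1 incision reactions ran 5 min at 37 °C, with cleaved product and intact substrate resolved electrophoretically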", "type": "biochemical", "parameters": "concentration or dose not given beside the values", "conditions": "percent incision shown; entries 1-112"}, "[10]": {"tested_on": "human immunodeficiency virus integrase", "parameters": "method as in PMID 9865384", "conditions": "cited from earlier work"}, "[11]": {"tested_on": "tubulin", "parameters": "method as in PMID 20657644", "conditions": "cited from earlier work"}, "[12]": {"conditions": "initial quantitative high-throughput screen, read-out: APE1 qHTS IC50"}, "[13]": {"conditions": "retest of cherrypicked sample, read-out: APE1 Retest IC50"}, "[14]": {"conditions": "estimated IC50, fluorophore detection, entries 113-223, read-out: F-PAGE Assay IC50"}, "[15]": {"conditions": "initial qHTS, 7-point titration, read-out: qHTS, IC50 obtained in the initial quantitative high-throughput screen"}}, "note": "Like-named read-outs stand apart in the source and are kept apart here.", "data": [{"smiles": "CCOC(=O)c1cc(-c2ccc(/C=C3/C(=O)N(c4ccc(C(=O)O)cc4)N=C3C)o2)ccc1Cl", "note": "[MLS001196838]", "values": [{"measurement": "AP sites upon treatment with the inhibitor alone", "setting": "[1]", "value": "noticeable increase in AP sites"}, {"measurement": "IC50", "setting": "[2]", "value": 16.2, "unit": "µM"}, {"measurement": "IC50", "setting": "[3]; read-out: EndoIV IC50", "value": "> 57", "unit": "µM"}, {"measurement": "Inhibition of HAT p300", "setting": "[4]", "value": "potent and selective inhibitor"}, {"measurement": "IC50", "setting": "[5]; [12]", "value": 8.4, "unit": "µM"}, {"measurement": "IC50", "setting": "[5]; [13]", "value": 25.7, "unit": "µM"}, {"measurement": "IC50", "setting": "[6]", "value": "> 57", "unit": "µM"}, {"measurement": "MMS Assay", "setting": "[7]", "value": "P"}, {"measurement": "IC50", "setting": "[8]; [14]", "value": 7.9, "unit": "µM"}]}, {"smiles": "COc1ccc(Cc2nnc(NC(=O)Cc3cccs3)s2)cc1OC", "note": "[MLS000115025]", "values": [{"measurement": "AP site levels, combination versus MMS-alone, repeat testing", "setting": "[1]; 275 µM MMS plus inhibitor, repeat test (Figure S1)", "value": "support the initially-observed enhancements"}, {"measurement": "AP site levels, combination treatment versus MMS-alone", "setting": "[1]; 275 µM MMS plus inhibitor", "value": "obscured by large standard deviations"}, {"measurement": "IC50", "setting": "[2]", "value": "> 57", "unit": "µM"}, {"measurement": "IC50", "setting": "[3]; read-out: EndoIV IC50", "value": "> 57", "unit": "µM"}, {"measurement": "Radiotracer Assay (%Activity)", "setting": "[9]", "value": 48, "unit": "%"}, {"measurement": "IC50", "setting": "[5]; [15]", "value": 28.1, "unit": "µM"}, {"measurement": "IC50", "setting": "[5]; [12]", "value": 28.2, "unit": "µM"}, {"measurement": "IC50", "setting": "[5]; [13]", "value": 2, "unit": "µM"}, {"measurement": "IC50", "setting": "[6]", "value": "> 57", "unit": "µM"}, {"measurement": "MMS Assay", "setting": "[7]", "value": "P"}]}, {"smiles": "O=c1oc2c(cc1O)oc(=O)c1cc(O)c(O)c(O)c12", "note": "[MLS000737267, galloflavin]", "values": [{"measurement": "AP site levels, combination treatment versus MMS-alone", "setting": "[1]; 275 µM MMS plus inhibitor", "value": "no statistical significance"}, {"measurement": "IC50", "setting": "[2]", "value": 6.3, "unit": "µM"}, {"measurement": "IC50", "setting": "[3]; read-out: EndoIV IC50", "value": "> 57", "unit": "µM"}, {"measurement": "Radiotracer Assay (%Activity)", "setting": "[9]", "value": 46, "unit": "%"}, {"measurement": "IC50", "setting": "[5]; [12]", "value": 0.4, "unit": "µM"}, {"measurement": "IC50", "setting": "[5]; [13]", "value": 0.13, "unit": "µM"}, {"measurement": "HIV integrase IC50", "setting": "[10]", "value": "low-micromolar"}, {"measurement": "IC50", "setting": "[6]", "value": "> 57", "unit": "µM"}, {"measurement": "MMS Assay", "setting": "[7]", "value": "P"}]}, {"smiles": "Cc1c(C(=O)OCC2CCCO2)[nH]c2c1C(=O)CC(c1ccco1)C2", "note": "(centres unmarked) [MLS000090966]", "values": [{"measurement": "AP site levels, combination treatment versus MMS-alone", "setting": "[1]; 275 µM MMS plus inhibitor", "value": "obscured by large standard deviations"}, {"measurement": "Inhibition of tubulin assembly", "setting": "[11]", "value": "effective inhibitor"}, {"measurement": "IC50", "setting": "[2]", "value": "> 57", "unit": "µM"}, {"measurement": "IC50", "setting": "[3]; read-out: EndoIV IC50", "value": "> 57", "unit": "µM"}, {"measurement": "Radiotracer Assay (%Activity)", "setting": "[9]", "value": 37, "unit": "%"}, {"measurement": "IC50", "setting": "[5]; [15]", "value": 7.07, "unit": "µM"}, {"measurement": "IC50", "setting": "[5]; [12]", "value": 7.1, "unit": "µM"}, {"measurement": "IC50", "setting": "[5]; [13]", "value": 4.5, "unit": "µM"}, {"measurement": "IC50", "setting": "[6]", "value": 15.8, "unit": "µM"}, {"measurement": "MMS Assay", "setting": "[7]", "value": "P"}]}, {"smiles": "COc1ccc2nc3cc(Cl)ccc3c(Nc3cc(CN4CCCC4)c(O)c(CN4CCCC4)c3)c2n1", "note": "[MLS001306480, pyronaridine, reference compound]", "values": [{"measurement": "AP sites upon treatment with the inhibitor alone", "setting": "[1]", "value": "noticeable increase in AP sites"}, {"measurement": "IC50", "setting": "[2]", "value": "> 57", "unit": "µM"}, {"measurement": "IC50", "setting": "[3]", "value": 28.9, "unit": "µM"}, {"measurement": "IC50", "setting": "[5]; [12]", "value": 15, "unit": "µM"}, {"measurement": "IC50", "setting": "[5]; [13]", "value": 6.5, "unit": "µM"}, {"measurement": "IC50", "setting": "[6]", "value": 32.4, "unit": "µM"}, {"measurement": "MMS Assay: potentiation of the genotoxic effect of methylmethane sulfonate", "setting": "[7]", "value": "P"}, {"measurement": "IC50", "setting": "[8]; entries 113-223: fluorophore detection, estimated IC50, read-out: Gel-based electrophoretic separation assay with fluorophore detection, estimated IC50 (column headed Radiotracer Assay (%Activity))", "value": 12.6, "unit": "µM"}]}, {"smiles": "CC1CCN(C2=NN3C(=N)/C(=C\\c4ccc(OC(=O)c5ccco5)cc4)C(=O)N=C3S2)CC1", "note": "[MLS001076862]", "values": [{"measurement": "AP site levels, combination treatment versus MMS-alone", "setting": "[1]; 275 µM MMS plus inhibitor", "value": "no statistical significance"}, {"measurement": "AP sites upon treatment with the inhibitor alone", "setting": "[1]", "value": "noticeable increase in AP sites"}, {"measurement": "IC50", "setting": "[2]", "value": "> 57", "unit": "µM"}, {"measurement": "IC50", "setting": "[3]; read-out: EndoIV IC50", "value": "> 57", "unit": "µM"}, {"measurement": "IC50", "setting": "[5]; [12]", "value": 10.6, "unit": "µM"}, {"measurement": "MMS Assay", "setting": "[7]", "value": "P"}, {"measurement": "IC50", "setting": "[8]; [14]", "value": 4, "unit": "µM"}]}]}
